From PMC4749215, “Simvastatin Sodium Salt and Fluvastatin Interact with Human Gap Junction Gamma-3 Protein” (PLoS ONE, 2016) come the findings set out here.

Counter-ions that a name gives are not always drawn.

For the experiment, the target named is T1, peptide A (contig29; N-terminal residues 1-25 of GJC3, hCx30.2/31.3) (Homo sapiens, UniProt Q8NFK1).
T1 construct: not the full-length connexin
T1 sequence (Q8NFK1 1-25): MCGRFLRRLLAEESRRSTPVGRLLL
Description: surface plasmon resonance (ProteOn XPR36), immobilised biotinylated peptide. The format is binding. To be noted: PBS; 0-400 uM titration; N-terminal 25-residue peptide only.
On to `O=C(O)c1cccnc1Nc1cccc(C(F)(F)F)c1` [niflumic acid], for which the “surface plasmon resonance (ProteOn XPR36), immobilised biotinylated peptide” value (from here on “surface plasmon resonance”) was “concentration dependent binding profile of niflumic acid was observed with peptide A”.

With `CC1(C)[C@@H](OC(=O)CCC(=O)O)CC[C@]2(C)[C@H]3C(=O)C=C4[C@@H]5C[C@@](C)(C(=O)O)CC[C@]5(C)CC[C@@]4(C)[C@]3(C)CC[C@@H]12` [carbenoxolone disodium salt], the “surface plasmon resonance” value is recorded as “carbenoxolone, exhibited a pronounced binding interaction”.

For the compound `CC(C)n1c(/C=C/C(O)CC(O)CC(=O)O)c(-c2ccc(F)cc2)c2ccccc21` (stereo not shown) [fluvastatin sodium salt], the “surface plasmon resonance” value is listed as “fluvastatin sodium salt, more pronounced binding is seen to peptide A”.

As to `CCC(C)(C)C(=O)O[C@H]1C[C@@H](C)C=C2C=C[C@H](C)[C@H](CC[C@@H](O)C[C@@H](O)CC(=O)O)[C@H]21` [simvastatin sodium salt], the “surface plasmon resonance” value was “simvastatin acid sodium salt exhibited a weak, concentration dependent binding profile”.
